Source: patent publication US20260356824A1, “COMPOUNDS FOR TREATING FIBROTIC DISEASES” (Meta-Immue Inc., priority 2023, published 2026)

Experiments:
[1] = target: T1, hLPAR1 (Homo sapiens, UniProt Q92633); assay: Ca2+ Flux Assay (B103 cells stably expressing hLPAR1); assay type: cell-based; conditions: LPA-induced calcium release, Fura-2 AM, compound 20 min at RT
T1 construct: expressed in transfected cells
Description: B103 cells stably expressing hLPAR1 were seeded at a density of 1.0×10^5 cells per well in clear flat-bottom black 96-well plates and incubated overnight in complete media. The following day, the cells were pre-incubated in serum-free media for 2 hours prior to ensure cellular equilibration. For the loading a calcium-sensitive fluorescent dye, the cells were treated with a concentration of 5 μM Fura-2 AM dye (Sigma, F1225) in Hank's buffered salt solution (HBSS) supplemented with 20 mM HEPES, […], and 0.3% fatty-acid-free bovine serum albumin for 40 minutes at room temperature (RT). Test compounds, prepared in DMSO, were then added to each well and incubated for 20 minutes at RT. To induce calcium release, a concentration of […] in HBSS supplemented with 20 mM HEPES, and 0.3% fatty-acid-free bovine serum albumin was introduced. Intracellular calcium mobilization was subsequently quantified by monitoring the fluorescence intensity using the Spark® multimode microplate reader (TECAN).

[2] = system: A2058 cells; assay: Chemotaxis Assay (LPA-induced migration of A2058 cells); assay type: cell-based; conditions: Homo sapiens, 4 to 8 hours, crystal violet 590 nm
Description: For monitoring the migration of cells, Neuroprobe ChemoTx® System plates ([…], 5.7 mm diameter sites; Gaithersburg, MD, USA) were utilized. To induce cell migrations, a concentration of […] or vehicle in DMEM were loaded to the bottom chamber. A total of 15,000 A2058 cells, which were starved for 24 hr following treated with test compounds or vehicle, were then applied to the upper membrane coated with 0.001% fibronectin. The plate was incubated for 4 to 8 hours to allow cell migration. Following incubation, the plate was dissembled, and the migrated cells were visualized by crystal violet staining. The stained area with crystal violet was quantified by measuring the absorbance at 590 nm and the relative percentage of the control was calculated.

[3] = target: T2, BSEP (Homo sapiens, UniProt O95342); assay: Bile Salt Export Pump (BSEP) Assay, Sf9 insect cell vesicles expressing BSEP; assay type: in vitro ADME; conditions: 10 μM test compound, probe substrate 1 μM [3H]-taurocholic acid, 15 min incubation
T2 construct: ATP-dependent uptake of radiolabelled probe substrate
Description: • 1. A stock solution was prepared with the test article (Sponsor compound) in DMSO. • 2. All final assay solutions of probe substrate, reference inhibitor or test article contain 0.5% (v/v) DMSO (vehicle control). • 3. Test article concentrations in transport study were specified in the Summary Table of Experimental Conditions of this protocol.
• 1. Bovine Serum Albumin (BSA) • 2. Dimethyl sulfoxide (DMSO) • 3. BSEP Assay Uptake Buffer (10 mM HEPES-Tris pH 7.4, 0.1 M KNO3, 12.5 mM Mg(NO3)2, 50 mM sucrose) • 4. BSEP Wash Buffer (10 mM Tris-HCl pH 7.4, 0.1 M KNO3, 50 mM sucrose) • 5. BSEP Blocking Buffer (BSEP Wash Buffer+0.5 mg/mL BSA) • 6. 25 mM Mg-ATP solution • 7. 25 mM AMP solution • 8. Corning Costar 96-well flat-bottom, untreated, white Assay Plate (Corning Cat. No. 3912) • 9. Millipore MultiscreenHTs Filtration Plate, glass fiber FB—1.0/0.65 μm (Cat. No. MSFBN6B10 or glass fiber FC—1.2/0.65 μm (Cat. No. MSFCN6B10) • 10. Millipore MultiscreenHTS Vacuum Manifold (Cat. No. MSVMHTS00) • 11. Probe substrates listed in Table 1 • 12. Reference inhibitors listed in Table 1 • 13. Test articles
• 1. Test system: • a. 96-well flat bottom plate containing a suspension of vesicles and a corresponding 96-well glass fiber filtration plate. • b. Transport experiments were conducted in the Assay Uptake Buffer. • c. Transport experiment was initiated with the addition of Mg-ATP or AMP to appropriate wells. • d. Each condition was run in triplicate wells. • 2. Prepared the 96-well flat-bottom assay plate. • a. Incubated the assay plate with the Blocking Buffer for 60 min at 37 °C with orbital shaking at approximately 90 rpm. (NOTE: This is done to prevent non-specific binding of vesicles to polystyrene assay plate). • b. After 60 min, completely removed the Blocking Buffer from the assay plate. • c. The Assay Uptake Buffer solutions were added to the assay plate wells as follows: • i. For probe substrate transport assays, the Assay Uptake Buffer contained vesicles and the probe substrate at the specified concentration. • ii. For the reference inhibition assay, the Assay Uptake Buffer contained vesicles, the reference inhibitor and the probe substrate at the specified concentration in Table 1. • iii. For the test article assays, Assay Uptake Buffer contained vesicles, the test article and the probe substrate at the specified concentration in Table 1. • 3. Incubate at 37 °C with orbital shaking at approximately 90 rpm for the time period specified in Table 1 of this protocol. • 4. Using the 25 mM Mg-ATP or AMP stocks, Mg-ATP or AMP was added to test wells of flat bottom assay plate to a final concentration of 5 mM. • 5. Incubated at 37 °C with orbital shaking at approximately 90 rpm for the incubation time specified in Table 1 of this protocol. • 6. Prepared the 96-well glass fiber filtration plate: • a. Incubated the filtration plate with the Blocking Buffer for 2 min at room temperature with under no vacuum. • b. Turned on vacuum and allowed Blocking Buffer to filter through plate. • c. With vacuum on, filter plate was washed with ice cold Wash Buffer. • 7. At the end of the specified incubation time indicated in […] of this protocol, vesicle transport was quenched by adding ice cold Wash Buffer to samples in 96-well assay plate. • 8. Mixed assay samples (now diluted in Wash Buffer) with pipette and transfered 175 μL into the 96-well glass fiber filtration plate to separate vesicles from buffer by applying vacuum. • 9. Washed filter plate wells with ice cold Wash Buffer. • 10. Allowed filter plate to dry under vacuum. • 11. Transfered filters to scintillation sample plate and added 700 μL of scintillation fluid to the above samples. • 12. Counted the above samples on a 1450 Microbeta (Perkin-Elmer).
• 1. The amount of substrate was quantified with radiometric detection on a 1450 Microbeta (Perkin-Elmer). • 2. For transport study samples run in triplicate, the mean and standard deviation of the replicates were reported. • 3. […]

T1 sequence (Q92633 whole entry): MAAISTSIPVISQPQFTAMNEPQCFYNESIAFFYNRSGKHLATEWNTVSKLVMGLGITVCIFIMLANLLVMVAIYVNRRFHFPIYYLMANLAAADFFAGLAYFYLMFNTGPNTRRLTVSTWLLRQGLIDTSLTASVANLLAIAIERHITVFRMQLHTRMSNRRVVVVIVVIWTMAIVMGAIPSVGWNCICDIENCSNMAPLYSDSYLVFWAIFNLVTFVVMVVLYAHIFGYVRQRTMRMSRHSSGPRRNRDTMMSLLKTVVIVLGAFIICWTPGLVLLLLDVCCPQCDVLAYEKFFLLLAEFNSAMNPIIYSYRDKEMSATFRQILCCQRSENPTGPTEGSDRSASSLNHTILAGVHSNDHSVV
T2 sequence (O95342 whole entry): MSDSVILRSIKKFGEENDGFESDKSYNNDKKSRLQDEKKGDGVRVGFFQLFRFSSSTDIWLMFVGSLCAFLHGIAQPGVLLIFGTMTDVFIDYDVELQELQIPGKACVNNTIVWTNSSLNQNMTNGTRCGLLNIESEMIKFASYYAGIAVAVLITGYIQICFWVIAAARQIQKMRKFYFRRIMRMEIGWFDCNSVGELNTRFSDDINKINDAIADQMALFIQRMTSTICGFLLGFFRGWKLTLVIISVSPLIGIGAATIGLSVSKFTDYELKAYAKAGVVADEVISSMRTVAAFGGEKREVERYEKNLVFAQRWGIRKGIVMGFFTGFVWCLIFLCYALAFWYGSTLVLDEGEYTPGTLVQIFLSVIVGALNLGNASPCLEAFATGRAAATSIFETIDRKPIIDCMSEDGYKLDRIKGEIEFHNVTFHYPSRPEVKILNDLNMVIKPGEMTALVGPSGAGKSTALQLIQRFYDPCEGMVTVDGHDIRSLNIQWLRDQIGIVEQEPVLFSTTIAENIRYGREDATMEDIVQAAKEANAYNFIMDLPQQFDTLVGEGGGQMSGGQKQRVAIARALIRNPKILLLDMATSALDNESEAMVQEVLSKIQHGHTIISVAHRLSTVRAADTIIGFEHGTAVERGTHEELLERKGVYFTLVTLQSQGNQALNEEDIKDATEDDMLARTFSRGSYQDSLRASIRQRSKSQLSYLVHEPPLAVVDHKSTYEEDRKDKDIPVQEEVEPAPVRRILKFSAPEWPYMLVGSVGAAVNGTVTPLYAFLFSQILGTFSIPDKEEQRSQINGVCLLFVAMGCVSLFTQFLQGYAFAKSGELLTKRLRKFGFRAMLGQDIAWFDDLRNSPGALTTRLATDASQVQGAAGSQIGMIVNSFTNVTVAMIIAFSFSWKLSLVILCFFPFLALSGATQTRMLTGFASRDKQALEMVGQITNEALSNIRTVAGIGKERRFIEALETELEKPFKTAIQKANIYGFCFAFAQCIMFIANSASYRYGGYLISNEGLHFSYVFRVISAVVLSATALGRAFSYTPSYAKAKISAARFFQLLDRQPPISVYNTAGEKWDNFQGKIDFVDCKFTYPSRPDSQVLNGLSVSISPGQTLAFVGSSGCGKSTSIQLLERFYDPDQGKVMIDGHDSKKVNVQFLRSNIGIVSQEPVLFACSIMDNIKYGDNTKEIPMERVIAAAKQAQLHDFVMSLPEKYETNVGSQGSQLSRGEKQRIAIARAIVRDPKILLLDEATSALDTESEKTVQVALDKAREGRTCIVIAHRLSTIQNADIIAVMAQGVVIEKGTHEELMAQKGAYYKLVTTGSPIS

SMILES	IC50 [1] [µM]	IC50 [2] [µM]	inhibition at 0.25 h, 10 µM [3] [%]
C[C@@H](OC(=O)Nc1c(C2CCN(c3ccc(C4(C(=O)O)CC4)cc3)CC2)cnn1C)c1ccccc1 [Compound 55]	0.01 to 0.2	0.1 to 0.5	25 to 50
COc1ccc(C2CCN(c3ccc(C4(C(=O)O)CC4)cc3)CC2)c(NC(=O)O[C@H](C)c2ccccc2)c1 [Compound 19, (R)-1-(4-(4-(4-methoxy-2-(((1-phenylethoxy)carbonyl)amino)phenyl)piperidin-1-yl)phenyl)cyclopropane-1-carboxylic acid]	< 0.01	< 0.1	50 to 75
Cc1ccccc1[C@@H](C)OC(=O)Nc1c(C)noc1C1CC2(C1)CN(c1ccc(C3(C(=O)NS(C)(=O)=O)CC3)cc1)C2 [Compound 7]	< 0.01	< 0.1	75 to 100
Cc1ccccc1[C@@H](C)OC(=O)Nc1c(C)noc1C1CC2(C1)CN(c1ccc(C3(C(=O)O)CC3)cc1)C2 [Compound 33, 1-(4-{6-[3-methyl-4-({[(1R)-1-(2-methylphenyl)ethoxy]carbonyl}amino)-1,2-oxazol-5-yl]-2-azaspiro[3.3]heptan-2-yl}phenyl)cyclopropane-1-carboxylic acid]	< 0.01	< 0.1	75 to 100
Cc1noc(C2CC3(C2)CN(c2ccc(C4(C(=O)NS(C)(=O)=O)CC4)cc2)C3)c1NC(=O)O[C@H](C)c1ccccc1 [Compound 9]	< 0.01	0.1 to 0.5	50 to 75
Cc1noc(C2CCN(c3ccc(C4(C(=O)NS(=O)(=O)CC(C)CO)CC4)cc3)CC2)c1NC(=O)O[C@H](C)c1ccccc1 (stereo partly drawn) [Compound 79, (1R)-1-phenylethyl N-{5-[1-(4-{1-[(3-hydroxy-2-methylpropanesulfonyl)carbamoyl]cyclopropyl}phenyl)piperidin-4-yl]-3-methyl-1,2-oxazol-4-yl}carbamate]	< 0.01	< 0.1	25 to 50
Cc1cc(C2(C(=O)O)CC2)ccc1N1CCC(c2onc(C)c2NC(=O)O[C@H](C)c2ccccc2)CC1 [Compound 61]	< 0.01	< 0.1	50 to 75
Cc1noc(C2CC3(C2)CN(c2ccc(C4(C(=O)O)CC4)cc2)C3)c1NC(=O)O[C@H](C)c1ccccc1 [Compound 54, 1-(4-{6-[3-methyl-4-({[(1R)-1-phenylethoxy]carbonyl}amino)-1,2-oxazol-5-yl]-2-azaspiro[3.3]heptan-2-yl}phenyl)cyclopropane-1-carboxylic acid]	0.01 to 0.2	< 0.1	25 to 50
Cc1noc(C2CCN(c3ccc(C4(C(=O)O)CC4)nc3)CC2)c1NC(=O)O[C@H](C)c1ccccc1 [Compound 90]	0.01 to 0.2	0.1 to 0.5	25 to 50
C[C@@H](OC(=O)Nc1cc(Cl)sc1C1CCN(c2ccc(C3(C(=O)O)CC3)cc2)CC1)c1ccccc1 [Compound 92, 1-(4-{4-[5-chloro-3-({[(1R)-1-phenylethoxy]carbonyl}amino)thiophen-2-yl]piperidin-1-yl}phenyl)cyclopropane-1-carboxylic acid]	0.01 to 0.2	< 0.1	75 to 100
CCc1ccccc1[C@@H](C)OC(=O)Nc1c(C)noc1C1CCN(c2ccc(C3(C(=O)NS(=O)(=O)CCC(=O)O)CC3)cc2)CC1 [Compound 37, 3-({[1-(4-{4-[4-({[(1R)-1-(2-ethylphenyl)ethoxy]carbonyl}amino)-3-methyl-1,2-oxazol-5-yl]piperidin-1-yl}phenyl)cyclopropyl]formamido}sulfonyl)propanoic acid]	< 0.01	< 0.1	50 to 75
C[C@@H](OC(=O)Nc1c(C2CCN(c3ccc(C4(C(=O)NS(=O)(=O)CC(=O)O)CC4)cc3)CC2)nnn1C)c1ccccc1 [Compound 58, 2-[[1-[4-[4-[1-methyl-5-[[(1R)-1-phenylethoxy]carbonylamino]triazol-4-yl]-1piperidyl]phenyl]cyclopropanecarbonyl]sulfamoyl]acetic acid]	0.01 to 0.2	0.1 to 0.5	≤ 25
